According to EP3807270B1, “NOVEL HETEROARYL HETEROCYCLYL COMPOUNDS FOR THE TREATMENT OF AUTOIMMUNE DISEASE” (F. Hoffmann-La Roche AG, priority 2018, dated 2019):

Target: T1, human TLR8 (Homo sapiens, UniProt Q9NR97)
T1 construct: host or cells: HEK293 (HEK-Blue)
T1 sequence (Q9NR97 27-1041): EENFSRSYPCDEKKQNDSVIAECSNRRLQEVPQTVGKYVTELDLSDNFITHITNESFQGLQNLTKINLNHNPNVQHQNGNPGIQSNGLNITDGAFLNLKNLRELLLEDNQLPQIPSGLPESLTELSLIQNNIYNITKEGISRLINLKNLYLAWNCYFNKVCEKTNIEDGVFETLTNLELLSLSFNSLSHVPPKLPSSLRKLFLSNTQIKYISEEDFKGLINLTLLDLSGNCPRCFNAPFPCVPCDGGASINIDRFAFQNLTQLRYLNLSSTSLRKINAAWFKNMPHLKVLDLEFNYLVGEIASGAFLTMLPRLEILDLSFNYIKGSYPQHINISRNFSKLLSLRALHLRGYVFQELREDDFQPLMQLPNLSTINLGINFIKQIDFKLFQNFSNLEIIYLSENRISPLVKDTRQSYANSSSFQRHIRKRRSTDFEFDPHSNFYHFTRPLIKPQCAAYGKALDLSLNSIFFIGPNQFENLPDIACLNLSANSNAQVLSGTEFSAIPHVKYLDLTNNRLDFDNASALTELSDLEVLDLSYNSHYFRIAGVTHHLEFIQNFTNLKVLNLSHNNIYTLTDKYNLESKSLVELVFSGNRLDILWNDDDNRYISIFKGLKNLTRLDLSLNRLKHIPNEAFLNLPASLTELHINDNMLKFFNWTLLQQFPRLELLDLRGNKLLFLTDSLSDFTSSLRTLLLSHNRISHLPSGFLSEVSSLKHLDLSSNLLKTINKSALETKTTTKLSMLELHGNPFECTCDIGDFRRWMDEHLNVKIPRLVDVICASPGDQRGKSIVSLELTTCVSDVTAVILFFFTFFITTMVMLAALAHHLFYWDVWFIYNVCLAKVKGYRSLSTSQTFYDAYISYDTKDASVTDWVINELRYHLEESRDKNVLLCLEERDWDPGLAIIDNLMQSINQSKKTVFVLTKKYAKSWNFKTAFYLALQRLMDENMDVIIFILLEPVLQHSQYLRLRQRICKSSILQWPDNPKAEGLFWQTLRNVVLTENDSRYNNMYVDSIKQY
Assay: HEK293-Blue-hTLR-8 cells assay (SEAP reporter, R848 stimulation)
Assay type: cell-based
Conditions: HEK293-Blue-hTLR8 cells, R848, 20 hrs; read-out: HEK/hTLR8 IC50
Excerpt: A stable HEK293-Blue-hTLR-8 cell line was purchased from InvivoGen (Cat.#: hkb-htlr8, San Diego, California, USA). These cells were originally designed for studying the stimulation of human TLR8 by monitoring the activation of NF-κB. A SEAP (secreted embryonic alkaline phosphatase) reporter gene was placed under the control of the IFN-β minimal promoter fused to five NF-κB and AP-1-binding sites. The SEAP was induced by activating NF-κB and AP-1 via stimulating HEK-Blue hTLR8 cells with TLR8 ligands. Therefore, the reporter expression was declined by TLR8 antagonist under the stimulation of a ligand, such as R848, for incubation of 20 hrs. The cell culture supernatant SEAP reporter activity was determined using QUANTI-Blue™ kit (Cat.#: rep-qb1, Invivogen, San Diego, Ca, USA) at a wavelength of 640 nm, a detection medium that turns purple or blue in the presence of alkaline phosphatase.
HEK293-Blue-hTLR8 cells were incubated at a density of 250,000-450,000 cells/mL in a volume of 170 µL in a 96-well plate in Dulbecco's Modified Eagle's medium (DMEM) containing 4.5 g/L glucose, 50 U/mL penicillin, […], […], 2 mM L-glutamine, 10% (v/v) heat-inactivated fetal bovine serum with addition of 20 µL test compound in a serial dilution in the presence of final DMSO at 1% and 10 µL of 60uM R848 in above DMEM, perform incubation under 37 °C in a CO2 incubator for 20 hrs. Then 20 µL of the supernatant from each well was incubated with 180 µL Quanti-blue substrate solution at 37°C for 2 hrs and the absorbance was read at 620-655 nm using a spectrophotometer. The signaling pathway that TLR8 activation leads to downstream NF-κB activation has been widely accepted, and therefore similar reporter assay was modified for evaluating TLR8 antagonist.

Question: How did the IC50 turn out when `C[C@@H]1CN(c2ccc(C#N)c3ncccc23)C[C@H](CN2CCCN(c3nc4c(s3)CNCC4)CC2)O1` [Example 33, 5-[(2R,6S)-2-methyl-6-[[4-(4,5,6,7-tetrahydrothiazolo[5,4-c]pyridin-2-yl)-1,4-diazepan-1-yl]methyl]morpholin-4-yl]quinoline-8-carbonitrile] was run?
Answer: 11 nM

Question: `C[C@@H]1CN(c2ccc(C#N)c3ncccc23)C[C@H](CN2CCN(c3ccc4c(n3)CCN(C)C4)CC2)O1` [Example 34, 5-[(2R,6S)-2-methyl-6-[[4-(6-methyl-7,8-dihydro-5H-1,6-naphthyridin-2-yl)piperazin-1-yl]methyl]morpholin-4-yl]quinoline-8-carbonitrile] was tested. Which IC50 did it give?
Answer: 6 nM

Question: Which IC50 does the source give for `C[C@@H]1CN(c2ccc(C#N)c3ncccc23)C[C@H](CN2CC3(CCN3c3ccc4c(n3)CCNC4)C2)O1` [Example 36, 5-[(2R,6S)-2-methyl-6-[[1-(5,6,7,8-tetrahydro-1,6-naphthyridin-2-yl)-1,6-diazaspiro[3.3]heptan-6-yl]methyl]morpholin-4-yl]quinoline-8-carbonitrile] here?
Answer: 43 nM

Question: For `C[C@@H]1CN(c2ccc(C#N)c3ncccc23)C[C@H](CN2CCC(Nc3ccc4c(c3)CNC4)C2)O1` (stereo partly drawn) [Example 38, 5-[(2S,6R)-2-[[3-(isoindolin-5-ylamino)pyrrolidin-1-yl]methyl]-6-methyl-morpholin-4-yl]quinoline-8-carbonitrile], which IC50 is on record?
Answer: 50 nM

Question: With `C[C@@H]1CN(c2ccc(C#N)c3ncccc23)C[C@H](CN2CCCN(c3ncc4c(n3)CCNC4)CC2)O1` [Example 39, 5-[(2R,6S)-2-methyl-6-[[4-(5,6,7,8-tetrahydropyrido[4,3-d]pyrimidin-2-yl)-1,4-diazepan-1-yl]methyl]morpholin-4-yl]quinoline-8-carbonitrile] as the molecule, how does the IC50 read?
Answer: 12 nM

Question: `C[C@@H]1CN(c2ccc(C#N)c3ncccc23)C[C@H](CN2CCN(c3cnc4c(n3)CNCC4)CC2)O1` [Example 40, 5-[(2R,6S)-2-methyl-6-[[4-(5,6,7,8-tetrahydropyrido[3,4-b]pyrazin-3-yl)piperazin-1-yl]methyl]morpholin-4-yl]quinoline-8-carbonitrile] was tested. Which IC50 did it give?
Answer: 4 nM

Question: With `CC1NCc2ncc(N3CCN(C[C@H]4CN(c5ccc(C#N)c6ncccc56)C[C@@H](C)O4)CC3)cc21` (stereo partly drawn) [Example 41, 5-[(2R,6S)-2-methyl-6-[[4-(5-methyl-6,7-dihydro-5H-pyrrolo[3,4-b]pyridin-3-yl)piperazin-1-yl]methyl]morpholin-4-yl]quinoline-8-carbonitrile] as the molecule, how does the IC50 read?
Answer: 17 nM

Question: With `C[C@@H]1CN(c2ccc(C#N)c3ncccc23)C[C@H](CNC2CN(c3cnc4c(c3)CNC4)C2)O1` [Example 43, 5-[(2S,6R)-2-[[[1-(6,7-dihydro-5H-pyrrolo[3,4-b]pyridin-3-yl)azetidin-3-yl]amino]methyl]-6-methyl-morpholin-4-yl]quinoline-8-carbonitrile] as the molecule, how does the IC50 read?
Answer: 54 nM

Question: `C[C@@H]1CN(c2ccc(C#N)c3ncccc23)C[C@H](CN2CC3(C2)CN(c2ccc4c(c2)CCNC4)CCO3)O1` [Example 44, 5-[(2R,6S)-2-methyl-6-[[8-(1,2,3,4-tetrahydroisoquinolin-6-yl)-5-oxa-2,8-diazaspiro[3.5]nonan-2-yl]methyl]morpholin-4-yl]quinoline-8-carbonitrile] was tested. Which IC50 did it give?
Answer: 4 nM

Question: Which IC50 does the source give for `C[C@@H]1CN(c2ccc(C#N)c3ncccc23)C[C@H](CN2CC3(C2)CN(c2ccc4c(n2)CNCC4)CCO3)O1` [Example 45, 5-[(2R,6S)-2-methyl-6-[[8-(5,6,7,8-tetrahydro-1,7-naphthyridin-2-yl)-5-oxa-2,8-diazaspiro[3.5]nonan-2-yl]methyl]morpholin-4-yl]quinoline-8-carbonitrile] here?
Answer: 10 nM

Question: Which IC50 does the source give for `C[C@@H]1CN(c2ccc(C#N)c3ncccc23)C[C@H](CN2CC3(C2)CN(c2cnc4c(c2)CCNC4)CCO3)O1` [Example 46, 5-[(2R,6S)-2-methyl-6-[[8-(5,6,7,8-tetrahydro-1,7-naphthyridin-3-yl)-5-oxa-2,8-diazaspiro[3.5]nonan-2-yl]methyl]morpholin-4-yl]quinoline-8-carbonitrile] here?
Answer: 9 nM

Question: How did the IC50 turn out when `C[C@@H]1CN(c2ccc(C#N)c3ncccc23)C[C@H](CN2CC3(C2)CN(c2cnc4c(c2)CNCC4)CCO3)O1` [Example 47, 5-[(2R,6S)-2-methyl-6-[[8-(5,6,7,8-tetrahydro-1,6-naphthyridin-3-yl)-5-oxa-2,8-diazaspiro[3.5]nonan-2-yl]methyl]morpholin-4-yl]quinoline-8-carbonitrile] was run?
Answer: 20 nM

Question: With `C[C@@H]1CN(c2ccc(C#N)c3ncccc23)C[C@H](CN2CC3(C2)CN(c2cc4c(cn2)CCNC4)CCO3)O1` [Example 48, 5-[(2R,6S)-2-methyl-6-[[8-(5,6,7,8-tetrahydro-2,6-naphthyridin-3-yl)-5-oxa-2,8-diazaspiro[3.5]nonan-2-yl]methyl]morpholin-4-yl]quinoline-8-carbonitrile] as the molecule, how does the IC50 read?
Answer: 8 nM

Question: `C[C@@H]1CN(c2ccc(C#N)c3ncccc23)C[C@H](CN2CC3(C2)CN(c2ccc4c(n2)CCNC4)CCO3)O1` [Example 49, 5-[(2R,6S)-2-methyl-6-[[8-(5,6,7,8-tetrahydro-1,6-naphthyridin-2-yl)-5-oxa-2,8-diazaspiro[3.5]nonan-2-yl]methyl]morpholin-4-yl]quinoline-8-carbonitrile] was tested. Which IC50 did it give?
Answer: < 3 nM

Question: Which IC50 does the source give for `C[C@@H]1CN(c2ccc(C#N)c3ncccc23)C[C@H](CN2CC3(C2)CN(c2cnc4c(n2)CCNC4)CCO3)O1` [Example 50, 5-[(2R,6S)-2-methyl-6-[[8-(5,6,7,8-tetrahydropyrido[3,4-b]pyrazin-2-yl)-5-oxa-2,8-diazaspiro [3.5]nonan-2-yl]methyl]morpholin-4-yl] quinoline-8-carbonitrile] here?
Answer: < 3 nM

Question: How did the IC50 turn out when `C[C@@H]1CN(c2ccc(C#N)c3ncccc23)C[C@H](CN2CC3(C2)CN(c2ncc4c(n2)CCNC4)CCO3)O1` [Example 51, 5-[(2R,6S)-2-methyl-6-[[8-(5,6,7,8-tetrahydropyrido[4,3-d]pyrimidin-2-yl)-5-oxa-2,8-diazaspiro[3.5]nonan-2-yl]methyl]morpholin-4-yl]quinoline-8-carbonitrile] was run?
Answer: 5 nM

Question: How did the IC50 turn out when `C[C@@H]1CN(c2ccc(C#N)c3ncccc23)C[C@H](CN2C[C@@H]3[C@@H](C2)OCCN3c2cnc3c(c2)CCNC3)O1` [Example 52, 5-[(2S,6R)-2-[[(4aR,7aR)-4-(5,6,7,8-tetrahydro-1,7-naphthyridin-3-yl)-2,3,4a,5,7,7a-hexahydropyrrolo[3,4-b][1,4]oxazin-6-yl]methyl]-6-methylmorpholin-4-yl]quinoline-8-carbonitrile] was run?
Answer: 26 nM

Question: For `C[C@@H]1CN(c2ccc(C#N)c3ncccc23)C[C@H](CN2CCN(c3cnc4c(c3)CNCC4)C(C)(C)C2)O1` [Example 56, 5-[(2S,6R)-2-[[3,3-dimethyl-4-(5,6,7,8-tetrahydro-1,6-naphthyridin-3-yl)piperazin-1-yl]methyl]-6-methyl-morpholin-4-yl]quinoline-8-carbonitrile], which IC50 is on record?
Answer: 12 nM

Question: Which IC50 does the source give for `C[C@@H]1CN(c2ccc(C#N)c3ncccc23)C[C@H](CN2CCC(Nc3ncc4c(n3)CCNC4)C2)O1` (stereo partly drawn) [Example 57, 5-[(2R,6S)-2-methyl-6-[[3-(5,6,7,8-tetrahydropyrido [4,3-d]pyrimidin-2-ylamino)pyrrolidin-1-yl]methyl]morpholin-4-yl] quinoline-8-carbonitrile] here?
Answer: 37 nM
